Laboratory results: BindingDB's records for doi:10.1124/jpet.102.046797 (University of Maryland, 2003)

target: T1, Gamma-hydroxybutyrate receptor (Rattus norvegicus, UniProt Q6RY99)
T1 sequence (Q6RY99 whole entry): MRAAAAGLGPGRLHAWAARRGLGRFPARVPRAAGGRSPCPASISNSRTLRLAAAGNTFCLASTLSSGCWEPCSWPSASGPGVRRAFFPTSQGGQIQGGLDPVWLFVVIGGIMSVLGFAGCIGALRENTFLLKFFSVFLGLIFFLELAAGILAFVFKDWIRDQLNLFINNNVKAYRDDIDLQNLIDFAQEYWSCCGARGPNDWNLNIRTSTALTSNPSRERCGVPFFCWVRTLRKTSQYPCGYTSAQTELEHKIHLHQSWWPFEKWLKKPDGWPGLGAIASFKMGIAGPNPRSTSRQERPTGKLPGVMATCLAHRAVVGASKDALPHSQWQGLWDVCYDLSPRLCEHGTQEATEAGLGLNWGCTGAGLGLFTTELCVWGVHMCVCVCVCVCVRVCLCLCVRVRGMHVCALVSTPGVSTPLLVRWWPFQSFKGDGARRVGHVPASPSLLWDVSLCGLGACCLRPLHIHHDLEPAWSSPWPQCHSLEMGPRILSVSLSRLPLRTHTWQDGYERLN

SMILES | Ki [µM]
CC(C)(O)CCCC(=O)O [UMB75] | > 10
CC(C)(O)CCC(=O)O [UMB68] | > 10
O=C(O)/C=C1/CCCc2ccccc2C1O (centres undefined) [CAS_131413] | 1.8
O=C(O)CCCCO [UMB58] | > 10
